Results on 1 compound are retold here after patent publication US7083798B1, “Method of immunomodulatory treatment of insulin dependent diabetes mellitus using mycobacterial cell wall compositions” (Centenary Institute of Cancer Medicine and Cell Biology, priority 1996, dated 2006).

Each structure is given as a SMILES string.

For the series, the system named is mice. Description: Maximum dose tolerated by mice.

Procedure: GMDP (10, 5.0, 2.5 and 1.0 μg), ManLAM (50, 25, 12.5 and 6.25 μg), and MAPG (1.0, 0.5, 0.25 and 0.125 mg) were each suspended in saline and injected intravenously into eight week old female NOD mice. […] Groups of 5 mice were tested and the incidence of diabetes compared to 17 saline treated and 14 BCG treated control mice.

As for `CC(=O)N[C@H]1[C@H](O[C@H]2[C@H](O[C@H](C)C(=O)N[C@@H](C)C(=O)N[C@H](CCC(=O)O)C(N)=O)[C@@H](NC(C)=O)C(O)O[C@@H]2CO)O[C@H](CO)[C@@H](O)[C@@H]1O` (stereo partly drawn) [GMDP, N-acetylglucosaminyl-N-acetylmuramyl-L-alanyl-D-isoglutamine], the “maximum dose tolerated by mice” value came out at 10 µL·g.
